Data reported in patent publication US6525001B1, “Substituted pyrimidine and pyridine herbicides” (Mid-American Commercialization Corporation, priority 1997, dated 2003).

How the values were obtained:
Assay in all cases: Test B pre-/postemergence
Assay type in all cases: in vivo
Design in all cases: key: 0 is no effect; 10 is complete control
[1] = system: bedstraw (Galium aparine)
Method in brief: (§1)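 Compounds in a surfactant-containing, non-phytotoxic solvent blend are applied to freshly planted seed (preemergence) and, concurrently, to seedlings of 2 to 18 cm at 1–4 leaves (postemergence). Plants stay in the greenhouse twelve to sixteen days and are then scored visually from 0 (no effect) to 10 (complete control).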

[2] = system: blackgrass (Alopecurus myosuroides)
Method in brief: as §1

[3] = system: broadleaf signalgrass (Brachiaria decumbens)
Method in brief: as §1

[4] = system: cocklebur (Xanthium strumarium)
Method in brief: as §1

corn (Zea mays) = system: corn (Zea mays)
Method in brief: as §1

[5] = system: crabgrass (Digitaria sanguinalis)
Method in brief: as §1

[6] = system: momingglory (Ipomoea hederacea)
Method in brief: as §1

[7] = system: pigweed (Amaranthus retroflexus)
Method in brief: as §1

rape (Brassica napus) = system: rape (Brassica napus)
Method in brief: as §1

soybean (Glycine max) = system: soybean (Glycine max)
Method in brief: as §1

[8] = system: sugar beet (Beta vulgaris)
Method in brief: as §1

[9] = system: velvetleaf (Abutilon theophrasti)
Method in brief: as §1

[10] = system: wheat (Triticum aestivum)
Method in brief: as §1

wild oat (Avena fatua) = system: wild oat (Avena fatua)
Method in brief: as §1

Cc1cnc(-c2ccc(C(F)(F)F)cc2)nc1Cn1ccc(C(F)(F)F)n1 [compound 9]
3: Plant response rating, Blackgrass ([2]; Rate 62 g/ha, Postemergence) | Plant response rating, Corn (corn (Zea mays); Rate 62 g/ha, Postemergence) | Plant response rating, Corn (corn (Zea mays); Rate 250 g/ha, Preemergence) | Plant response rating, Wheat ([10]; Rate 62 g/ha, Postemergence) | Plant response rating, Wheat ([10]; Rate 125 g/ha, Postemergence) | Plant response rating, Wild oats (wild oat (Avena fatua); Rate 62 g/ha, Postemergence)
2: Cocklebur plant response rating ([4]; Rate 125 g/ha, Preemergence) | Plant response rating, Soybean (soybean (Glycine max); Rate 250 g/ha, Preemergence) | Wheat plant response rating ([10]; Rate 125 g/ha, Preemergence)
4: Bedstraw plant response rating ([1]; Rate 62 g/ha, Preemergence) | Blackgrass plant response rating ([2]; Rate 62 g/ha, Preemergence) | Plant response rating, Corn (corn (Zea mays); Rate 125 g/ha, Postemergence) | Plant response rating, Corn (corn (Zea mays); Rate 500 g/ha, Preemergence) | Plant response rating, Soybean (soybean (Glycine max); Rate 500 g/ha, Preemergence) | Plant response rating, Wheat ([10]; Rate 250 g/ha, Postemergence) | Plant response rating, Wild oats (wild oat (Avena fatua); Rate 125 g/ha, Postemergence)
5: Plant response rating, B. signalgrass ([3]; Rate 62 g/ha, Postemergence) | Plant response rating, Corn (corn (Zea mays); Rate 250 g/ha, Postemergence) | Plant response rating, Corn (corn (Zea mays); Rate 500 g/ha, Postemergence) | Plant response rating, Wheat ([10]; Rate 250 g/ha, Preemergence) | Wild oats plant response rating (wild oat (Avena fatua); Rate 62 g/ha, Preemergence)
9: Plant response rating, Bedstraw ([1]; Rate 500 g/ha, Preemergence) | Blackgrass plant response rating ([2]; Rate 125 g/ha, Preemergence) | Plant response rating, Blackgrass ([2]; Rate 500 g/ha, Postemergence) | B. signalgrass plant response rating ([3]; Rate 125 g/ha, Preemergence) | Plant response rating, B. signalgrass ([3]; Rate 250 g/ha, Postemergence) | Plant response rating, B. signalgrass ([3]; Rate 500 g/ha, Postemergence) | Plant response rating, Cocklebur ([4]; Rate 62 g/ha, Postemergence) | Plant response rating, Cocklebur ([4]; Rate 125 g/ha, Postemergence) | Plant response rating, Cocklebur ([4]; Rate 250 g/ha, Preemergence) | Plant response rating, Cocklebur ([4]; Rate 500 g/ha, Postemergence) | Plant response rating, Cocklebur ([4]; Rate 500 g/ha, Preemergence) | Plant response rating, Crabgrass ([5]; Rate 62 g/ha, Postemergence) | Crabgrass plant response rating ([5]; Rate 62 g/ha, Preemergence) | Plant response rating, Crabgrass ([5]; Rate 125 g/ha, Postemergence) | Redroot pigweed plant response rating ([7]; Rate 62 g/ha, Preemergence) | Plant response rating, Rape (rape (Brassica napus); Rate 62 g/ha, Postemergence) | Rape plant response rating (rape (Brassica napus); Rate 62 g/ha, Preemergence) | Rape plant response rating (rape (Brassica napus); Rate 125 g/ha, Preemergence) | Plant response rating, Soybean (soybean (Glycine max); Rate 125 g/ha, Postemergence) | Plant response rating, Soybean (soybean (Glycine max); Rate 500 g/ha, Postemergence) | Sugarbeets plant response rating ([8]; Rate 62 g/ha, Preemergence) | Plant response rating, Sugarbeets ([8]; Rate 500 g/ha, Postemergence) | Plant response rating, Velvetleaf ([9]; Rate 250 g/ha, Preemergence) | Plant response rating, Velvetleaf ([9]; Rate 500 g/ha, Postemergence) | Plant response rating, Velvetleaf ([9]; Rate 500 g/ha, Preemergence) | Plant response rating, Wild oats (wild oat (Avena fatua); Rate 250 g/ha, Preemergence) | Plant response rating, Wild oats (wild oat (Avena fatua); Rate 500 g/ha, Preemergence)
0: Cocklebur plant response rating ([4]; Rate 62 g/ha, Preemergence) | Corn plant response rating (corn (Zea mays); Rate 62 g/ha, Preemergence)
8: Plant response rating, Blackgrass ([2]; Rate 125 g/ha, Postemergence) | Plant response rating, Blackgrass ([2]; Rate 250 g/ha, Postemergence) | B. signalgrass plant response rating ([3]; Rate 62 g/ha, Preemergence) | Plant response rating, B. signalgrass ([3]; Rate 125 g/ha, Postemergence) | Morningglory plant response rating ([6]; Rate 62 g/ha, Preemergence) | Plant response rating, Soybean (soybean (Glycine max); Rate 62 g/ha, Postemergence) | Velvetleaf plant response rating ([9]; Rate 125 g/ha, Preemergence) | Wild oats plant response rating (wild oat (Avena fatua); Rate 125 g/ha, Preemergence) | Plant response rating, Wild oats (wild oat (Avena fatua); Rate 500 g/ha, Postemergence)
6: Plant response rating, Wheat ([10]; Rate 500 g/ha, Postemergence) | Plant response rating, Wheat ([10]; Rate 500 g/ha, Preemergence) | Plant response rating, Wild oats (wild oat (Avena fatua); Rate 250 g/ha, Postemergence)
7: Bedstraw plant response rating ([1]; Rate 125 g/ha, Preemergence) | Velvetleaf plant response rating ([9]; Rate 62 g/ha, Preemergence)
1: Corn plant response rating (corn (Zea mays); Rate 125 g/ha, Preemergence) | Soybean plant response rating (soybean (Glycine max); Rate 62 g/ha, Preemergence) | Soybean plant response rating (soybean (Glycine max); Rate 125 g/ha, Preemergence) | Wheat plant response rating ([10]; Rate 62 g/ha, Preemergence)
10: Plant response rating, Bedstraw ([1]; Rate 62 g/ha, Postemergence) | Plant response rating, Bedstraw ([1]; Rate 125 g/ha, Postemergence) | Plant response rating, Bedstraw ([1]; Rate 250 g/ha, Postemergence) | Plant response rating, Bedstraw ([1]; Rate 250 g/ha, Preemergence) | Plant response rating, Bedstraw ([1]; Rate 500 g/ha, Postemergence) | Plant response rating, Blackgrass ([2]; Rate 250 g/ha, Preemergence) | Plant response rating, Blackgrass ([2]; Rate 500 g/ha, Preemergence) | Plant response rating, B. signalgrass ([3]; Rate 250 g/ha, Preemergence) | Plant response rating, B. signalgrass ([3]; Rate 500 g/ha, Preemergence) | Plant response rating, Cocklebur ([4]; Rate 250 g/ha, Postemergence) | Crabgrass plant response rating ([5]; Rate 125 g/ha, Preemergence) | Plant response rating, Crabgrass ([5]; Rate 250 g/ha, Postemergence) | Plant response rating, Crabgrass ([5]; Rate 250 g/ha, Preemergence) | Plant response rating, Crabgrass ([5]; Rate 500 g/ha, Postemergence) | Plant response rating, Crabgrass ([5]; Rate 500 g/ha, Preemergence) | Plant response rating, Morningglory ([6]; Rate 62 g/ha, Postemergence) | Plant response rating, Morningglory ([6]; Rate 125 g/ha, Postemergence) | Morningglory plant response rating ([6]; Rate 125 g/ha, Preemergence) | Plant response rating, Morningglory ([6]; Rate 250 g/ha, Postemergence) | Plant response rating, Morningglory ([6]; Rate 250 g/ha, Preemergence) | Plant response rating, Morningglory ([6]; Rate 500 g/ha, Postemergence) | Plant response rating, Morningglory ([6]; Rate 500 g/ha, Preemergence) | Plant response rating, Redroot pigweed ([7]; Rate 62 g/ha, Postemergence) | Plant response rating, Redroot pigweed ([7]; Rate 125 g/ha, Postemergence) | Redroot pigweed plant response rating ([7]; Rate 125 g/ha, Preemergence) | Plant response rating, Redroot pigweed ([7]; Rate 250 g/ha, Postemergence) | Plant response rating, Redroot pigweed ([7]; Rate 250 g/ha, Preemergence) | Plant response rating, Redroot pigweed ([7]; Rate 500 g/ha, Postemergence) | Plant response rating, Redroot pigweed ([7]; Rate 500 g/ha, Preemergence) | Plant response rating, Rape (rape (Brassica napus); Rate 125 g/ha, Postemergence) | Plant response rating, Rape (rape (Brassica napus); Rate 250 g/ha, Postemergence) | Plant response rating, Rape (rape (Brassica napus); Rate 250 g/ha, Preemergence) | Plant response rating, Rape (rape (Brassica napus); Rate 500 g/ha, Postemergence) | Plant response rating, Rape (rape (Brassica napus); Rate 500 g/ha, Preemergence) | Plant response rating, Soybean (soybean (Glycine max); Rate 250 g/ha, Postemergence) | Plant response rating, Sugarbeets ([8]; Rate 62 g/ha, Postemergence) | Plant response rating, Sugarbeets ([8]; Rate 125 g/ha, Postemergence) | Sugarbeets plant response rating ([8]; Rate 125 g/ha, Preemergence) | Plant response rating, Sugarbeets ([8]; Rate 250 g/ha, Postemergence) | Plant response rating, Sugarbeets ([8]; Rate 250 g/ha, Preemergence) | Plant response rating, Sugarbeets ([8]; Rate 500 g/ha, Preemergence) | Plant response rating, Velvetleaf ([9]; Rate 62 g/ha, Postemergence) | Plant response rating, Velvetleaf ([9]; Rate 125 g/ha, Postemergence) | Plant response rating, Velvetleaf ([9]; Rate 250 g/ha, Postemergence)
